From the supplement of paper PMC10307832

Legend:
Experiment in all cases: relative viability (nuclei count vs DMSO), 5 days (fraction); higher = more cells survive
[1] = compound: N[C@@H]1CCCN(c2c(/C=C3\SC(=O)NC3=O)cccc2-c2ccccc2)C1 [AZD1208] + N=C(N)NC(=N)NCCc1ccccc1 [Phenformin] (partner 250 µM)
Procedure, shortened: (§1)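 Dosing by pin tool came one day after lung cancer cell lines were seeded in 1536-well plates, using either one drug or a fixed anchor-drug dose plus five library-drug doses (not always all listed) in √10 steps. After 5 days, nuclei were counted on 4× images. Relative viability is treated-well nuclei count divided by vehicle-well nuclei count, and values are medians of duplicate plates.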

[2] = compound: CN1CCN(CC1)C2=CC(=C(C=C2)NC3=NC(=C(S3)C(=O)C4=C(C=CC=C4Cl)Cl)N)OC [XMD14-99] + CC1(C)CCC(c2ccc(Cl)cc2)=C(CN2CCN(c3ccc(C(=O)NS(=O)(=O)c4ccc(N[C@H](CCN5CCOCC5)CSc5ccccc5)c(S(=O)(=O)C(F)(F)F)c4)cc3)CC2)C1 [Navitoclax] (partner 0.5 µM)
Procedure, shortened: as §1

[3] = compound: N[C@@H]1CCCN(c2c(/C=C3\SC(=O)NC3=O)cccc2-c2ccccc2)C1 [AZD1208]
Procedure, shortened: (§2)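 Vehicle-anchored 1536-well plates of lung cancer cell lines, held overnight at 37 °C, were pinned with five library-drug doses (not always all listed) spaced by √10. No medium change followed over the next 5 days, after which the cells were fixed, permeabilised and Hoechst-stained together and imaged at 4×. Nuclei were counted with MetaXpress, and viability is treated-well nuclei over vehicle-well nuclei, taken as a median across plates. Plates passed with control CV below 25% and at least one doubling.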

[4] = compound: CN1CCN(CC1)C2=CC(=C(C=C2)NC3=NC(=C(S3)C(=O)C4=C(C=CC=C4Cl)Cl)N)OC [XMD14-99]
Procedure, shortened: as §2

Row | Cell Line | relative viability ([1]; first compound 0.08 µM) | relative viability ([1]; first compound 0.253 µM) | relative viability ([1]; first compound 0.8 µM) | relative viability ([1]; first compound 2.53 µM) | relative viability ([1]; first compound 8 µM) | relative viability ([2]; first compound 0.08 µM) | relative viability ([2]; first compound 0.8 µM) | relative viability ([2]; first compound 2.53 µM) | relative viability ([2]; first compound 8 µM) | relative viability ([3]; 0.08 µM) | relative viability ([3]; 0.253 µM) | relative viability ([3]; 0.8 µM) | relative viability ([3]; 2.53 µM) | relative viability ([3]; 8 µM) | relative viability ([4]; 0.08 µM) | relative viability ([4]; 0.8 µM) | relative viability ([4]; 2.53 µM) | relative viability ([4]; 8 µM)
1 | LC-2-ad | 0.585 | 0.604 | 0.52 | 0.534 | 0.519 | 0.533 | 0.386 | 0.273 | 0.295 | 1.02 | 1.03 | 0.927 | 0.887 | 0.899 | 0.973 | 0.963 | 0.929 | 0.775
2 | CAL-12T | 0.517 | 0.698 | 0.557 | 0.522 | 0.576 | 1.28 | 1.14 | 1.21 | 1.16 | 1.01 | 1.13 | 0.967 | 1.01 | 1.05 | 0.974 | 1.01 | 0.933 | 0.692
3 | SK-LU-1 | 0.502 | 0.543 | 0.408 | 0.506 | 0.42 | 0.796 | 1.02 | 0.886 | 0.405 | 0.988 | 1.15 | 0.932 | 1.05 | 0.922 | 0.987 | 1.04 | 0.948 | 0.7
4 | NCI-H1650 | 0.416 | 0.424 | 0.414 | 0.337 | 0.289 | 1.15 | 1.44 | 0.992 | 1.04 | 0.924 | 1.1 | 0.868 | 0.898 | 0.88 | 0.818 | 0.976 | 0.805 | 0.807
5 | BEN | 0.269 | 0.267 | 0.244 | 0.259 | 0.269 | 0.0784 | 0.0577 | 0.0776 | 0.0694 | 0.954 | 0.84 | 0.629 | 0.709 | 0.537 | 0.969 | 0.988 | 0.961 | 0.801
6 | ABC-1 | 0.232 | 0.238 | 0.212 | 0.229 | 0.2 | – | – | – | – | 0.965 | 0.966 | 0.856 | 0.923 | 0.899 | 0.99 | 1.03 | 0.964 | 0.727
7 | NCI-H1299 | – | – | – | – | – | 1.08 | 1.03 | 0.994 | 0.825 | 1.01 | 1.06 | 1.03 | 1.06 | 1.06 | 0.996 | 0.98 | 0.941 | 0.859
8 | EBC-1 | – | – | – | – | – | 0.37 | 0.384 | 0.415 | 0.219 | 1.02 | 1.12 | 0.93 | 0.967 | 0.957 | 0.962 | 0.924 | 0.842 | 0.637
9 | NCI-H2342 | 0.563 | 0.585 | 0.52 | 0.569 | 0.462 | – | – | – | – | 1.07 | 0.944 | 0.84 | 0.945 | 0.765 | 0.957 | 0.932 | 1.02 | 0.761
10 | NCI-H661 | 0.264 | 0.286 | 0.276 | 0.295 | 0.268 | – | – | – | – | 0.993 | 1.02 | 1.04 | 0.981 | 0.93 | 0.925 | 0.948 | 0.835 | 0.678
11 | NCI-H650 | 0.535 | 0.51 | 0.448 | 0.416 | 0.427 | – | – | – | – | 1.09 | 0.972 | 0.833 | 0.759 | 0.73 | 1.02 | 1 | 0.98 | 0.808
12 | NCI-H358 | 0.325 | 0.353 | 0.309 | 0.305 | 0.259 | – | – | – | – | 0.904 | 0.78 | 0.798 | 0.862 | 0.729 | 0.959 | 0.895 | 0.851 | 0.57
13 | NCI-H1563 | 0.64 | 0.644 | 0.709 | 0.617 | 0.665 | – | – | – | – | 0.962 | 0.928 | 0.952 | 0.956 | 0.923 | 0.926 | 0.999 | 0.92 | 0.833
14 | SW 900 | 0.624 | 0.852 | 0.397 | 0.503 | 0.384 | – | – | – | – | 0.837 | 0.989 | 0.822 | 1 | 0.799 | 0.918 | 0.976 | 0.753 | 0.66
15 | IA-LM | – | – | – | – | – | 0.732 | 0.56 | 0.449 | 0.295 | 0.951 | 0.983 | 0.855 | 0.875 | 0.989 | 0.947 | 0.86 | 0.758 | 0.472
16 | NCI-H1703 | – | – | – | – | – | 1.06 | 1.11 | 0.933 | 0.719 | 0.846 | 0.881 | 0.846 | 0.718 | 0.654 | 0.89 | 0.912 | 0.91 | 0.761
17 | LCLC-103H | 0.317 | 0.246 | 0.323 | 0.315 | 0.28 | – | – | – | – | 1.02 | 1.04 | 0.938 | 0.773 | 0.777 | 0.953 | 1.02 | 0.963 | 0.907
18 | NCI-H1648 | – | – | – | – | – | – | – | – | – | 0.981 | 1.25 | 0.921 | 1.04 | 1.05 | 0.845 | 0.713 | 0.734 | 0.454
